Source: patent publication US4174391A, “Spiramycin esters” (May & Baker Limited, priority 1976, dated 1979)
In brackets after ≈: the same amount, converted by molar mass. Structures can show the parent of a compound that is named as a salt.

What was measured:
[1] = tested on: Staphylococcus aureus (Oxford); test: In vitro minimum inhibitory concentration, S. aureus (Oxford) (Test 3); format: cell-based; settings: tryptone soya broth, approximately 10^5 organisms per tube, 37° C.; for MIC: Staphylococcus aureus
Method: (§1) For each test compound, a range of concentrations in tryptone soya broth was prepared. Each test-tube containing a different concentration of the test compound within the range was inoculated with the test organism selected from Staphylococcus aureus (Oxford) or Escherichia coli B (Ennis) (approximately 10^5 organisms per tube) and after incubation at 37° C., the lowest concentration of test compound within the range required to prevent the growth of the test organism was recorded as the minimum inhibitory concentration for that compound and that organism.

[2] = tested on: Escherichia coli B (Ennis); test: In vitro minimum inhibitory concentration, E. coli B (Ennis) (Test 3); format: cell-based; settings: tryptone soya broth, approximately 10^5 organisms per tube, 37° C.; for MIC: Escherichia coli
Method: as §1

[3] = tested on: Staphylococcus aureus Smith; test: Mouse treated orally, Staphylococcus aureus Smith infection (Test 1); settings: 168 h, oral, dosed 1, 4, 24, 30 and 48 hours after infection, observed seven days, test compound, read-out: In vivo CD50 (oral)
Method: Mice were injected intra-peritoneally with Staphylococcus aureus Smith suspended in mucin (0.5 ml). This infection represented approximately 100 times the minimum dose calculated to kill 100% of mice. The mice were each treated orally with 16, 31, 62.5, 125 or 250 mg/kg animal body weight doses of a compound of general formula I. Each mouse was dosed 1, 4, 24, 30 and 48 hours after infection, with the selected dose.
(§2) The term "CD50" means the dose calculated to cure 50% of the mice treated.

[4] = tested on: Staphylococcus aureus Smith; test: Mouse treated subcutaneously, Staphylococcus aureus Smith infection (Test 2); format: in vivo; settings: sc, 168 h, read-out: CD50 (subcutaneous)
Method: as §2
Mice were infected intra-peritoneally with Staphylococcus aureus Smith [approximately 100 times the minimum dose lethal to 100% of mice infected] suspended in mucin (0.5 ml).
The results obtained from a compound of general formula I were compared with the results obtained from spiramycin I used as a standard compound.

Mouse oral toxicity = settings: in vivo
Method: Mice were each treated orally with one of the compounds of general formula I, and they were observed during the next 3 days.
The LD50 figures obtained (doses lethal to 50% of mice treated) are shown in Table II, expressed in mg/kg animal body weight. None of the mice died during the experiment even at doses of 1000 mg/kg animal body weight.

Molecule | MIC [1] [µg/mL] | MIC [2] [µg/mL] | ED50 [3] [mg/kg] | ED50 ([4]; mouse, subcutaneous, 1, 4, 24, 30 and 48 hours after infection, observed seven days) [mg/kg] | LD50 at 72 h (Mouse oral toxicity) [mg/kg] | ED50 [4] [mg/kg] | In vitro minimum inhibitory concentration, S. aureus (Oxford) [1] [µg/mL] | In vitro minimum inhibitory concentration, Escherichia coli B (Ennis) [2] [µg/mL]
CCOC(=O)CCC(=O)OC1C(OC2C(CC=O)CC(C)C(OC3CCC(N(C)C)C(C)O3)/C=C/C=C/CC(C)OC(=O)CC(O)C2OC)OC(C)C(OC2CC(C)(O)C(O)C(C)O2)C1N(C)C (stereo not drawn) [A, 2'-ethyl succinate of spiramycin I] | 1.25 | 62 | 88 | 17.5 | > 1000 |  |  | 
CCOC(=O)CCCC(=O)OC1C(OC2C(CC=O)CC(C)C(OC3CCC(N(C)C)C(C)O3)/C=C/C=C/CC(C)OC(=O)CC(O)C2OC)OC(C)C(OC2CC(C)(O)C(O)C(C)O2)C1N(C)C (stereo not drawn) [B, 2'-ethyl glutarate of spiramycin I] | 1.25 (≈ 1.27 µM) | 62 (≈ 62.9 µM) | 135 |  | > 1000 |  |  | 
COC(=O)CCC(=O)OC1C(OC2C(CC=O)CC(C)C(OC3CCC(N(C)C)C(C)O3)/C=C/C=C/CC(C)OC(=O)CC(O)C2OC)OC(C)C(OC2CC(C)(O)C(O)C(C)O2)C1N(C)C (stereo not drawn) [C, 2'-methyl succinate of spiramycin I] | 2.5 | 250 | 62 |  |  |  |  | 
COC(=O)CC(C)C(=O)OC1C(OC2C(CC=O)CC(C)C(OC3CCC(N(C)C)C(C)O3)/C=C/C=C/CC(C)OC(=O)CC(O)C2OC)OC(C)C(OC2CC(C)(O)C(O)C(C)O2)C1N(C)C (stereo not drawn) [Compound L, 2'-methyl (RS)-(3-methyl)succinate of spiramycin I] | 2.5 (≈ 2.57 µM) | 250 (≈ 257 µM) | 58 |  |  |  |  | 
CCCOC(=O)CCC(=O)OC1C(OC2C(CC=O)CC(C)C(OC3CCC(N(C)C)C(C)O3)/C=C/C=C/CC(C)OC(=O)CC(O)C2OC)OC(C)C(OC2CC(C)(O)C(O)C(C)O2)C1N(C)C (stereo not drawn) [D, 2'-propyl succinate of spiramycin I] | 2.5 | 250 | 90 |  |  |  |  | 
COC(=O)CCCC(=O)OC1C(OC2C(CC=O)CC(C)C(OC3CCC(N(C)C)C(C)O3)/C=C/C=C/CC(C)OC(=O)CC(O)C2OC)OC(C)C(OC2CC(C)(O)C(O)C(C)O2)C1N(C)C (stereo not drawn) [E, 2'-methyl glutarate of spiramycin I] | 2.5 (≈ 2.57 µM) | 125 (≈ 129 µM) | 125 |  |  |  |  | 
COC(=O)/C=C/C(=O)OC1C(OC2C(CC=O)CC(C)C(OC3CCC(N(C)C)C(C)O3)/C=C/C=C/CC(C)OC(=O)CC(O)C2OC)OC(C)C(OC2CC(C)(O)C(O)C(C)O2)C1N(C)C (stereo not drawn) [F, 2'-methyl fumarate of spiramycin I] | 2.5 | 250 | 125 |  |  |  |  | 
COC1C(O)CC(=O)OC(C)C/C=C/C=C/C(OC2CCC(N(C)C)C(C)O2)C(C)CC(CC=O)C1OC1OC(C)C(OC2CC(C)(O)C(O)C(C)O2)C(N(C)C)C1OC(=O)CCC(=O)SC (stereo not drawn) [G, 2'-S-methyl thiosuccinate of spiramycin I] | 2.5 (≈ 2.57 µM) | 500 (≈ 514 µM) | 114 |  |  |  |  | 
COC1C(O)CC(=O)OC(C)C/C=C/C=C/C(OC2CCC(N(C)C)C(C)O2)C(C)CC(CC=O)C1OC1OC(C)C(OC2CC(C)(O)C(O)C(C)O2)C(N(C)C)C1OC(=O)CCC(=O)OC1CCCCC1 (stereo not drawn) [H, 2'-cyclohexyl succinate of spiramycin I] | 2.5 | 250 | 67 |  |  |  |  | 
CCOC(=O)CC(=O)OC1C(OC2C(CC=O)CC(C)C(OC3CCC(N(C)C)C(C)O3)/C=C/C=C/CC(C)OC(=O)CC(O)C2OC)OC(C)C(OC2CC(C)(O)C(O)C(C)O2)C1N(C)C (stereo not drawn) [J, 2'-ethyl malonate of spiramycin I] | 5 (≈ 5.22 µM) | 250 (≈ 261 µM) | 120 |  |  |  |  | 
COC1C(O)CC(=O)OC(C)C/C=C/C=C/C(OC2CCC(N(C)C)C(C)O2)C(C)CC(CC=O)C1OC1OC(C)C(OC2CC(C)(O)C(O)C(C)O2)C(N(C)C)C1OC(=O)CCC(=O)Oc1ccccc1 (stereo not drawn) [K, 2'-phenyl succinate of spiramycin I] | 2.5 | 250 | 76 |  |  |  |  | 
COC1C(O)CC(=O)OC(C)C/C=C/C=C/C(OC2CCC(N(C)C)C(C)O2)C(C)CC(CC=O)C1OC1OC(C)C(OC2CC(C)(O)C(O)C(C)O2)C(N(C)C)C1OC(=O)CCC(=O)OCCc1ccccc1 (stereo not drawn) [M, 2'-(2-phenylethyl) succinate of spiramycin I] | 2.5 | 250 | 64 |  |  |  |  | 
COC1C(O)CC(=O)OC(C)C/C=C/C=C/C(OC2CCC(N(C)C)C(C)O2)C(C)CC(CC=O)C1OC1OC(C)C(OC2CC(C)(O)C(O)C(C)O2)C(N(C)C)C1OC(=O)CCC(=O)OC(C)(C)C (stereo not drawn) [N, 2'-tertiary-butyl succinate of spiramycin I] | 2.5 | 125 | 130 |  |  |  |  | 
COC1C(O)CC(=O)OC(C)C/C=C/C=C/C(OC2CCC(N(C)C)C(C)O2)C(C)CC(CC=O)C1OC1OC(C)C(OC2CC(C)(O)C(O)C(C)O2)C(N(C)C)C1OC(=O)CCC(=O)OC(C)C (stereo not drawn) [O, 2'-isopropyl succinate of spiramycin I] | 1.25 | 125 | 96 |  |  |  |  | 
COC1C(O)CC(=O)OC(C)C/C=C/C=C/C(OC2CCC(N(C)C)C(C)O2)C(C)CC(CC=O)C1OC1OC(C)C(OC2CC(C)(O)C(O)C(C)O2)C(N(C)C)C1O (stereo not drawn) [Spiramycin I, spiramycin I, reference compound] |  |  |  |  |  | 5.8 |  | 
Spiramycin [reference compound] |  |  |  |  |  |  | 0.62 to 2.5 | 62 to 250
